Experimental findings from article PMC9824296, “Functional Characterization of Three Diterpene Synthases Responsible for Tetracyclic Diterpene Biosynthesis in Scoparia dulcis” (Plants, 2022) are described below.

The target of one assay is T1, SdCPS2 (Scoparia dulcis, UniProt A0A1U8XUA9).
T1 construct: gene CPS2; full ORF 2412 bp, 804 residues
T1 sequence (A0A1U8XUA9 81-804): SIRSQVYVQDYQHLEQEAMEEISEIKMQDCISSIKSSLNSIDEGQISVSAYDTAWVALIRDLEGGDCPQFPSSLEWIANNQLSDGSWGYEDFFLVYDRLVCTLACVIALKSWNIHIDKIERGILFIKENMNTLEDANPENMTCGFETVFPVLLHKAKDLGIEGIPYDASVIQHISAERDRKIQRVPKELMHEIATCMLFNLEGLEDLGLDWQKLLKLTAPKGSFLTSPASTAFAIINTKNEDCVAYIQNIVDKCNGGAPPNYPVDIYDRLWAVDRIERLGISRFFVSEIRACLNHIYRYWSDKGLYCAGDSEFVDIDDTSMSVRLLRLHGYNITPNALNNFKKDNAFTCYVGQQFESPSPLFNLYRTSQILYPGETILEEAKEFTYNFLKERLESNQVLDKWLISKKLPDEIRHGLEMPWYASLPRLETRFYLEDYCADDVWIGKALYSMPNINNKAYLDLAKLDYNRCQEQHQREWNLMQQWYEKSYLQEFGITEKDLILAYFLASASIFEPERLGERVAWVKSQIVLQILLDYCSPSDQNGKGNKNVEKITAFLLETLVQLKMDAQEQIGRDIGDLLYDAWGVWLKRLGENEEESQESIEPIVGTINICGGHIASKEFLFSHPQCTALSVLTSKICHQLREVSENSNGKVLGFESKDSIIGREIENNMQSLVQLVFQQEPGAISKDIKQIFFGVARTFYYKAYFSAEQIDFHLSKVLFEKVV
Briefly: GC-MS of n-hexane extract of recombinant E. coli cultures. The note with it: GGPP supplied by co-expressed SdGGPPS; 16 °C; product seen as dephosphorylated alcohol. In kind it is cell-based.

For a further assay, the target named is T2, OsKSL4 (Oryza sativa, UniProt Q0JEZ8).
T2 construct: gene KSL4; in pET28b (NcoI/NotI), expressed in E. coli C41
T2 sequence (Q0JEZ8 57-842): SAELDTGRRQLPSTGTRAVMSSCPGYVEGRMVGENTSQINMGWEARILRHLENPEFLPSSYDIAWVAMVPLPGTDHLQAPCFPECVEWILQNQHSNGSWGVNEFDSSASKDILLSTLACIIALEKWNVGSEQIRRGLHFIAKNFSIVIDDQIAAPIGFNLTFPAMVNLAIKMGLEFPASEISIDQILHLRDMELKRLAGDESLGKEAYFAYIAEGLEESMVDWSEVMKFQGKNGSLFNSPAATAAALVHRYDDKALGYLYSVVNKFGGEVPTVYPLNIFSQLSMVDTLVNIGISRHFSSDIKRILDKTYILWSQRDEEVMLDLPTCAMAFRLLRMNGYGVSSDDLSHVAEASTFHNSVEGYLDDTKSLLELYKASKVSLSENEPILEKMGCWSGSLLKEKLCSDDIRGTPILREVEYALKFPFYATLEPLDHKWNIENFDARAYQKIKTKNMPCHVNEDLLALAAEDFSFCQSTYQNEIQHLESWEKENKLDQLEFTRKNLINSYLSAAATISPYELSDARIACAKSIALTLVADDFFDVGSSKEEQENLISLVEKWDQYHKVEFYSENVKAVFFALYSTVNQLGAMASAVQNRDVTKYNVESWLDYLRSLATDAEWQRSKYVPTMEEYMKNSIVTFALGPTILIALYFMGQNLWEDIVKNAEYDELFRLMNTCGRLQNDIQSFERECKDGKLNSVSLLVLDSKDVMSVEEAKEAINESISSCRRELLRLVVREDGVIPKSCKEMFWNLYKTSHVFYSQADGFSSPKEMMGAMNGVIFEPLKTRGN
The assay is described as above. The assay is classed as cell-based. The note with it: reference enzyme; syn-CPP supplied by co-expressed SdCPS2 or OsCPS4 with SdGGPPS; 16 °C; product 7.

Regarding `CC(C)=CCC/C(C)=C/CC/C(C)=C/CC/C(C)=C/COP(=O)(O)OP(=O)(O)O` [compound 2, geranylgeranyl diphosphate], the “GC-MS of n-hexane extract of recombinant E. coli cultures” value at SdCPS2 is recorded as “The SdCPS2 catalyzed a cyclization reaction from GGPP to syn-CPP”.

With `C=C1CC[C@H]2C(C)(C)CCC[C@]2(C)[C@@H]1CC/C(C)=C/COP(=O)(O)OP(=O)(O)O` [compound 3, syn-copalyl diphosphate], the “GC-MS of n-hexane extract of recombinant E. coli cultures” value at OsKSL4 is on record as “SdCPS2 could be cyclized by OsKSL4, whose substrate is a syn-copalyl diphosphate”.
